Measurements published in paper PMC7531004, “Discovery of gramicidin A analogues with altered activities by multidimensional screening of a one-bead-one-compound library” (Nature Communications, 2020).
Where “and” joins values, the source holds several entries; their conditions need not be identical. Equal values may be shown once. Read-outs that look alike come from different tables or passages of the source. Where a SMILES comes first, the peptide text is derived from it. [ ]: non-standard residue; d: D form. The star is where a group is joined. NHCH2CH2OH = OCCN*; For = O=C*

Legend:
[1] = system: Enterococcus faecalis JCM5803; details: for antibacterial activity/MIC: E. faecalis; for Antibacterial activity MIC: JCM5803
How it was run: (§1)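 MICs by CLSI broth microdilution in cation-adjusted Mueller Hinton Broth, with 5% laked horse blood added for streptococci, over 64–0.00024 µg/mL peptide.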

[2] = system: Listeria monocytogenes 10403S; details: for antibacterial activity/MIC: L. monocytogenes
How it was run: as §1

[3] = system: Streptococcus agalactiae JCM5671; details: for Antibacterial activity MIC: JCM5671; for antibacterial activity/MIC: S. agalactiae
How it was run: as §1

[4] = system: Streptococcus pneumoniae NBRC 102642; details: for Antibacterial activity MIC: NBRC 102642; for antibacterial activity/MIC: S. pneumoniae
How it was run: as §1

[5] = system: Streptococcus pyogenes SSI-9; details: for antibacterial activity/MIC: S. pyogenes; for Antibacterial activity MIC: SSI-9
How it was run: as §1

[6] = system: MSSA1 (methicillin-susceptible Staphylococcus aureus); format: cell-based
[7] = Membrane disruption assay of purified peptides (carboxyfluorescein leakage); format: biochemical; design: key: % lysis; Triton X-100 = 100%, DMSO = 0%; details: three replicate lines
[8] = H+/Na+ transport assay of purified peptides; details: for Supplementary Figure 5 dose-response value (H+/Na+ transport): three replicate lines
Procedure: First, we evaluated the ion channel function of 1 using liposomes. To mimic a negatively charged Gram-positive bacterial membrane, the liposomes were prepared as large unilamellar vesicles (LUVs) comprising a 19:1 mixture of egg yolk phosphatidylcholine (EYPC) and egg yolk phosphatidylglycerol (EYPG)[57]. Pyranine, a pH-dependent fluorescent dye[58], was encapsulated in the LUVs and a pH gradient was applied across the membrane. H^+/Na^+ transport induced by a peptide was monitored by changes in the fluorescence intensity of pyranine.

[9] = IC50, mammalian cytotoxicity assay
[10] = cytotoxicity against P388 cells/IC50
[11] = read-out: EC50, H+/Na+ transport assay, 1st experiment
[12] = read-out: EC50, H+/Na+ transport assay, 2nd experiment
[13] = read-out: EC50, H+/Na+ transport assay, 3rd experiment
[14] = read-out: H+/Na+ transport activity EC50, EYPC/EYPG (19:1) LUVs
[15] = read-out: H+/Na+ transport activity/EC50, mean ± SD of three independent experiments

With `CC(C)C[C@@H](NC(=O)[C@H](C)NC(=O)CNC(=O)[C@@H](NC=O)C(C)C)C(=O)N[C@@H](C)C(=O)N[C@@H](C(=O)N[C@H](C(=O)N[C@@H](C(=O)N[C@@H](Cc1c[nH]c2ccccc12)C(=O)N[C@@H](C(=O)N[C@@H](Cc1c[nH]c2ccccc12)C(=O)N[C@H](CC(C)C)C(=O)N[C@@H](Cc1c[nH]c2ccccc12)C(=O)N[C@@H](C(=O)N[C@@H](Cc1c[nH]c2ccccc12)C(=O)NCCO)C(C)C)C(C)C)C(C)C)C(C)C)C(C)C` [B04] (For-VGA[dL]A[dV]V[dV]W[dV]W[dL]W[dV]W-NHCH2CH2OH) the IC50 (Cytotoxicity IC50) was 41 nM, the IC50 [9] was 34.3 nM and the IC50 [10] was 40.6 ± 5.95 nM. The “antibacterial activity/MIC” value [1] was 1 µg/mL, the “Antibacterial activity MIC” value [1] was 0.54 µM and the “Antibacterial activity MIC” value ([2]; 10403S) was 4.3 µM. For the same molecule, the “antibacterial activity/MIC” value [2] was 8 µg/mL, the “Antibacterial activity MIC” value [3] was 4.3 µM and the “antibacterial activity/MIC” value [3] was 8 µg/mL. For the same molecule, the “Antibacterial activity MIC” value [4] was 0.0084 µM, the “antibacterial activity/MIC” value [4] was 0.016 µg/mL and the “antibacterial activity/MIC” value [5] was 0.063 µg/mL. The “Antibacterial activity MIC” value [5] was 0.034 µM, the “antibacterial activity/MIC” value [6] was 32 µg/mL and the “Supplementary Figure 1 dose-response value” ([7]; concentration 0.000512 nM) was 5.512 and 4.537 and 0.4455. The “Supplementary Figure 1 dose-response value” ([7]; concentration 0.00256 nM) was -0.04863 and -3.2 and 2.187, the “Supplementary Figure 1 dose-response value” ([7]; concentration 0.0128 nM) was 9.24 and 8.431 and 0.7987 and the “Supplementary Figure 1 dose-response value” ([7]; concentration 0.064 nM) was 3.3 and 2.841 and 2.346. For the same molecule, the “Supplementary Figure 1 dose-response value” ([7]; concentration 0.32 nM) was 3.831 and -2.375 and 0.08227, the “Supplementary Figure 1 dose-response value” ([7]; concentration 1.6 nM) was 3.92 and -4.965 and 7.615 and the “Supplementary Figure 1 dose-response value” ([7]; concentration 8 nM) was 4.496 and 6.302 and 12.8514. The “Supplementary Figure 1 dose-response value” ([7]; concentration 40 nM) was 10.2052 and 8.412 and 22.8437, the “Supplementary Figure 1 dose-response value” ([7]; concentration 200 nM) was 31.7359 and 28.6719 and 15.6803 and the “Supplementary Figure 1 dose-response value” ([7]; concentration 1000 nM) was 31.9617 and 33.3362 and 31.6759. The “Supplementary Figure 1 dose-response value” ([7]; concentration 5000 nM) was 49.4317 and 48.1889 and 46.8231, the “Supplementary Figure 5 dose-response value (H+/Na+ transport)” value ([8]; concentration 0.000512 nM) was -0.2346 and 0.9427 and 1.027 and the “Supplementary Figure 5 dose-response value (H+/Na+ transport)” value ([8]; concentration 0.00256 nM) was 1.3317 and 0.8542 and 1.548. For the same molecule, the “Supplementary Figure 5 dose-response value (H+/Na+ transport)” value ([8]; concentration 0.0128 nM) was -1.2605 and 2.862 and -0.09432, the “Supplementary Figure 5 dose-response value (H+/Na+ transport)” value ([8]; concentration 0.064 nM) was 5.945 and 3.111 and 2.028 and the “Supplementary Figure 5 dose-response value (H+/Na+ transport)” value ([8]; concentration 0.32 nM) was 10.5694 and 12.3828 and 8.56. The “Supplementary Figure 5 dose-response value (H+/Na+ transport)” value ([8]; concentration 1.6 nM) was 26.4566 and 23.815 and 22.5252, the “Supplementary Figure 5 dose-response value (H+/Na+ transport)” value ([8]; concentration 8 nM) was 54.4909 and 53.2036 and 54.0987 and the “Supplementary Figure 5 dose-response value (H+/Na+ transport)” value ([8]; concentration 40 nM) was 70.9935 and 73.4781 and 68.8062. The “Supplementary Figure 5 dose-response value (H+/Na+ transport)” value ([8]; concentration 200 nM) was 73.8391 and 72.9169 and 76.5429, the “Supplementary Figure 5 dose-response value (H+/Na+ transport)” value ([8]; concentration 1000 nM) was 75.0683 and 78.833 and 77.3632 and the “Supplementary Figure 5 dose-response value (H+/Na+ transport)” value ([8]; concentration 5000 nM) was 78.0479 and 76.1013 and 78.9016. It also gave an EC50 [8, 11] of 3.43 nM, an EC50 [8, 12] of 3.5 nM and an EC50 [8, 13] of 4.18 nM. The EC50 [8, 14] was 3.7 nM and the EC50 [8, 15] was 3.71 ± 0.42 nM.

With `CC(C)C[C@@H](NC(=O)[C@H](C)NC(=O)CNC(=O)[C@@H](NC=O)C(C)C)C(=O)N[C@@H](C)C(=O)N[C@H](CC(C)C)C(=O)N[C@H](C(=O)N[C@H](CC(C)C)C(=O)N[C@@H](Cc1c[nH]c2ccccc12)C(=O)N[C@H](CC(C)C)C(=O)N[C@@H](Cc1c[nH]c2ccccc12)C(=O)N[C@@H](C(=O)N[C@@H](Cc1c[nH]c2ccccc12)C(=O)N[C@@H](C(=O)N[C@@H](Cc1c[nH]c2ccccc12)C(=O)NCCO)C(C)C)[C@H](C)O)C(C)C` [B11] (For-VGA[dL]A[dL]V[dL]W[dL]W[dT]W[dV]W-NHCH2CH2OH) the IC50 [9] was 289 nM, the IC50 [10] was 250 ± 57.7 nM and the “antibacterial activity/MIC” value [1] was 2 µg/mL. For the same molecule, the “Antibacterial activity MIC” value [1] was 1.1 µM, the “antibacterial activity/MIC” value [2] was 4 µg/mL and the “Antibacterial activity MIC” value [3] was 8.5 µM. For the same molecule, the “antibacterial activity/MIC” value [3] was 16 µg/mL, the “Antibacterial activity MIC” value [4] was 0.017 µM and the “antibacterial activity/MIC” value [4] was 0.031 µg/mL. The “antibacterial activity/MIC” value [5] was 0.5 µg/mL, the “Antibacterial activity MIC” value [5] was 0.27 µM and the “antibacterial activity/MIC” value [6] was 8 µg/mL. For the same molecule, the “Supplementary Figure 1 dose-response value” ([7]; concentration 0.000512 nM) was 5.494 and 6.863 and 12.708, the “Supplementary Figure 1 dose-response value” ([7]; concentration 0.00256 nM) was 14.2851 and 9.552 and 1.714 and the “Supplementary Figure 1 dose-response value” ([7]; concentration 0.0128 nM) was 7.111 and 13.4023 and 5.9017. The “Supplementary Figure 1 dose-response value” ([7]; concentration 0.064 nM) was 7.045 and 5.618 and 12.7128, the “Supplementary Figure 1 dose-response value” ([7]; concentration 0.32 nM) was 7.504 and 4.742 and -0.9072 and the “Supplementary Figure 1 dose-response value” ([7]; concentration 1.6 nM) was 6.643 and 8.722 and 7.953. For the same molecule, the “Supplementary Figure 1 dose-response value” ([7]; concentration 8 nM) was 9.977 and 11.641 and 10.0816, the “Supplementary Figure 1 dose-response value” ([7]; concentration 40 nM) was 10.5587 and 19.8477 and 14.3879 and the “Supplementary Figure 1 dose-response value” ([7]; concentration 200 nM) was 16.8668 and 21.6675 and 22.4815. For the same molecule, the “Supplementary Figure 1 dose-response value” ([7]; concentration 1000 nM) was 29.3702 and 19.1829 and 26.8244, the “Supplementary Figure 1 dose-response value” ([7]; concentration 5000 nM) was 51.942 and 51.7671 and 63.4556 and the “Supplementary Figure 5 dose-response value (H+/Na+ transport)” value ([8]; concentration 0.000512 nM) was 2.871 and 2.386 and 5.02. For the same molecule, the “Supplementary Figure 5 dose-response value (H+/Na+ transport)” value ([8]; concentration 0.00256 nM) was 3.181 and 2.224 and 1.333, the “Supplementary Figure 5 dose-response value (H+/Na+ transport)” value ([8]; concentration 0.0128 nM) was 4.586 and 1.99 and 1.993 and the “Supplementary Figure 5 dose-response value (H+/Na+ transport)” value ([8]; concentration 0.064 nM) was 7.716 and 4.162 and 7.014. The “Supplementary Figure 5 dose-response value (H+/Na+ transport)” value ([8]; concentration 0.32 nM) was 12.4442 and 13.4783 and 13.1353, the “Supplementary Figure 5 dose-response value (H+/Na+ transport)” value ([8]; concentration 1.6 nM) was 25.1993 and 24.5125 and 22.5261 and the “Supplementary Figure 5 dose-response value (H+/Na+ transport)” value ([8]; concentration 8 nM) was 38.4333 and 37.5732 and 33.164. The “Supplementary Figure 5 dose-response value (H+/Na+ transport)” value ([8]; concentration 40 nM) was 66.9626 and 64.2822 and 61.6393, the “Supplementary Figure 5 dose-response value (H+/Na+ transport)” value ([8]; concentration 200 nM) was 70.7655 and 66.8425 and 69.2783 and the “Supplementary Figure 5 dose-response value (H+/Na+ transport)” value ([8]; concentration 1000 nM) was 70.5972 and 73.9169 and 73.5278. The “Supplementary Figure 5 dose-response value (H+/Na+ transport)” value ([8]; concentration 5000 nM) was 72.3937 and 72.1348 and 73.2071, the EC50 [8, 11] was 6.44 nM and the EC50 [8, 12] was 2.58 nM. The EC50 [8, 13] was 7.92 nM, the EC50 [8, 14] was 5.7 nM and the EC50 [8, 15] was 5.65 ± 2.76 nM.
